Results on 71 compounds are retold here after PubChem BioAssay AID1552 (Sanford-Burnham Center for Chemical Genomics, 2009).

SMILES strings stand for the structures. Calls of active or inactive are those of the source. No rule for the calls is given here.

The target in this assay is Ubiquitin-conjugating enzyme E2 N (Homo sapiens) (UniProt P61088). The assay is described as follows: UBE2N binders by NMR, biophysical, purified protein (AID 1552). The conditions noted are these: NMR binding to purified UBE2N.
Ubiquitin-conjugating enzyme E2 N (Homo sapiens), sequence (P61088 whole entry, looked up): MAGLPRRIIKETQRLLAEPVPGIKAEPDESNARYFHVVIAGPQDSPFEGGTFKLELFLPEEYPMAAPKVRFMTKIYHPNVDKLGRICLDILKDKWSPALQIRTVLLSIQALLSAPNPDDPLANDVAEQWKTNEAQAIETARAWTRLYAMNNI

`O=c1c(O)cc([C@H]2Oc3cc(O)cc(O)c3C[C@H]2O)cc2c([C@H]3Oc4cc(O)cc(O)c4C[C@H]3O)cc(O)c(O)c12`: the Kd is > 4 mM (inactive).

`Cc1ccc(-c2nnc3sc(-c4ccncc4)nn23)cc1`: the Kd was > 4 mM (inactive).

Turning to `O=P1(O)c2ccccc2Nc2ccccc21`, the Kd is > 4 mM (inactive). To `CC(=O)Nc1ccc(N2C(=O)C=CC2=O)cc1C` belongs > 4 mM (inactive).

For the compound `c1ccc(-n2ncc3c(NCc4ccco4)ncnc32)cc1`, the Kd was > 4 mM (inactive). Regarding `CCC(C)C(=O)O[C@@H]1C[C@@]2(C)[C@H](c3ccoc3)OC(=O)CC23OC2(C)OC34[C@H](OC(=O)C(C)C)[C@@]3(O)[C@@H](OC(=O)C5(C)OC5C)[C@@]5(C)C[C@]3(O)[C@@](C)([C@H]5CC(=O)OC)C14O2` (stereo partly specified), the Kd was > 4 mM (inactive). Take `CC(=O)c1ccc(NS(=O)(=O)c2cccc(C)c2)cc1`: the Kd was > 4 mM (inactive). As for `CSc1ccccc1NC(=O)c1cccnc1`, the Kd was > 4 mM (inactive). Turning to `Nc1cc(F)nc(F)n1`, the Kd was > 4 mM (inactive). `CC(=O)c1c(C)nn(CC(=O)O)c1C`: the Kd was > 4 mM (inactive).

On to `Cn1cnc2c(=S)[nH]c(=O)n(Cc3ccccc3)c21`, for which the Kd was > 4 mM (inactive). Turning to `NCc1ccccc1N1CCOCC1`, the Kd is > 4 mM (inactive). In the case of `CN1CCN(C2CCSC2)CC1` (stereo unspecified), the Kd is > 4 mM (inactive).

Regarding `O=c1cnnc(N2CCCCC2)[nH]1`, the Kd was > 4 mM (inactive). Regarding `Cn1[nH]c(C(F)(F)F)cc1=O`, the Kd was > 4 mM (inactive). For `O=C(O)Cn1nnn(-c2ccccc2)c1=S`, the Kd was > 4 mM (inactive). On to `N#CC(O[C@@H]1O[C@H](CO[C@@H]2O[C@H](CO)[C@@H](O)[C@H](O)[C@H]2O)[C@@H](O)[C@H](O)[C@H]1O)c1ccccc1` (stereo partly specified), for which the Kd is > 4 mM (inactive).

On to `O=C(O)CCSc1nc2ccccc2s1`, for which the Kd is > 4 mM (inactive).

As to `CCOc1cc(S(=O)(=O)n2nc(C)cc2C)ccc1F`, the Kd is > 4 mM (inactive). Turning to `CC(=O)Oc1c2c(c3c(c1CC=C(C)C)O[C@]14C(=C[C@@H]5CC1C(C)(C)OC4(C/C=C(\C)C(=O)O)C5=O)C3=O)OC(C)(CCC=C(C)C)C=C2` (stereo partly specified), the Kd is > 4 mM (inactive).

For the compound `CC(C)/C(O)=C1/C(=O)O[C@@H](c2ccoc2)[C@]2(C)C(O)[C@@H](O)[C@@]34OC5(C)OC67CC(C)(C(O)[C@]6(O)[C@@H](O)[C@]3(O5)C12)[C@H](CC(=O)O)[C@]74C` (stereo partly specified), the Kd is > 4 mM (inactive). With `CS(=O)(=O)CCCCN=C=S`, the Kd is > 4 mM (inactive). On to `NCc1ccc(-c2csnn2)cc1`, for which the Kd was > 4 mM (inactive). For the compound `CC(=O)N1N=C(N)SC1c1cccnc1` (stereo unspecified), the Kd was > 4 mM (inactive). On to `NCC1COc2ccccc2O1` (stereo unspecified), for which the Kd is > 4 mM (inactive). Regarding `CNC(=O)n1ccc(C(=O)N2CCCCC2)n1`, the Kd is > 4 mM (inactive). In the case of `ON=c1ccc2nc3ccccc3nc2cc1` it was > 4 mM (inactive); in that of `O=C(OCc1c(F)cccc1Cl)c1cnccn1`, > 4 mM (inactive); in that of `O=C(c1ccccc1)N1CCN(c2ccccc2F)CC1`, > 4 mM (inactive). Take `OCc1nccn1Cc1ccccc1`: the Kd is > 4 mM (inactive).

As to `CN1CCC(N(C)Cc2cccnc2)CC1`, the Kd is > 4 mM (inactive). On to `CC1(C)C2CC(=O)[C@]3(C)C(CC[C@@]4(C)[C@H](c5ccoc5)OC(=O)[C@H]5O[C@]543)[C@@]2(C)C(=O)C[C@H]1O` (stereo partly specified), for which the Kd is > 4 mM (inactive). With `COc1ccccc1NC(C)=O`, the Kd was > 4 mM (inactive). For the compound `O=C1CC(C(=O)O)c2ccccc21` (stereo unspecified), the Kd is > 4 mM (inactive). As for `CSc1ncc(C(=O)O)n1Cc1ccccc1`, the Kd was > 4 mM (inactive).

In the case of `COc1ccc(-c2coc3c(OC)c(OC)cc(OC)c3c2=O)cc1`, the Kd is > 4 mM (inactive).

As for `Nc1c2c3c(sc2nc(=O)n1N)CCCC3`, the Kd is > 4 mM (inactive). In the case of `Cc1cc[n+](-c2nc([O-])sc2C=O)cc1` it was > 4 mM (inactive); in that of `Cc1n[nH]c(=S)n1-c1ccc(C(=O)O)cc1`, > 4 mM (inactive). For the compound `Nc1ncnc(NCCCO)c1[N+](=O)[O-]`, the Kd is > 4 mM (inactive).

For the compound `COc1c(OC)c2occc2c2oc(=O)ccc12`, the Kd is > 4 mM (inactive). As to `COc1ccc(-c2nnsc2N)cc1`, the Kd is > 4 mM (inactive). Consider `O=C1CCCN1C(=O)c1ccc(F)cc1`, for which the Kd was > 4 mM (inactive). To `C/C(O)=c1/sc2cc(C)nc(=N)n2c1=O` belongs > 4 mM (inactive); to `Cc1c(C(=O)Nn2cnnc2)oc2ccccc12`, > 4 mM (inactive); to `CCOc1ccc(Cl)cc1S(=O)(=O)N1CCCC1`, > 4 mM (inactive).

In the case of `Cc1cc(NC(=O)c2cccc(S(C)(=O)=O)c2)no1`, the Kd is > 4 mM (inactive). With `CC(NC(=O)C1CCCCC1)C(=O)NC1=NCCS1` (stereo unspecified), the Kd is > 4 mM (inactive).

As to `CN(Cc1nc2ccccc2n1C)S(C)(=O)=O`, the Kd is > 4 mM (inactive). For the compound `c1ccc(-c2noc(-c3cccnc3)n2)nc1`, the Kd is > 4 mM (inactive). To `c1cnc(N2CCNCC2)nc1` belongs > 4 mM (inactive); to `CCSc1nnc2[nH]c(=O)cc(C)n12`, > 4 mM (inactive); to `Nc1nnc(SCc2ccccc2Cl)s1`, > 4 mM (inactive). Take `c1ccc(-c2nsc(N3CCNCC3)n2)cc1`: the Kd was > 4 mM (inactive). Regarding `O=C(O)Cc1nc(-c2ccncc2)n[nH]1`, the Kd was > 4 mM (inactive).

In the case of `CC1(C)N([O-])c2cc([N+](=O)[O-])ccc2[N+]1=O`, the Kd is > 4 mM (inactive). To `Cc1cc(CN2C(=O)c3ccccc3C2=O)on1` belongs > 4 mM (inactive); to `Cc1ccc(-n2[nH]c(C)cc2=O)cc1`, > 4 mM (inactive); to `c1coc(CNc2nc(-c3ccncc3)cs2)c1`, > 4 mM (inactive). Turning to `CN(C)c1ccc(CNn2cnnc2)cc1`, the Kd was > 4 mM (inactive).

Regarding `COc1c(O)cc(O)cc1O`, the Kd is > 4 mM (inactive).

Regarding `CC1(C)CC[C@]2(C)CC[C@]3(C)C(=CCC4[C@@]5(C)CC[C@H](O)C(C)(C)C5CC[C@]43C)C2C1` (stereo partly specified), the Kd is > 4 mM (inactive). Consider `C/C=C/c1ccc2c(c1)OCO2`, for which the Kd was > 4 mM (inactive). Regarding `NC(=O)CC1Sc2ccccc2NC1=O` (stereo unspecified), the Kd was > 4 mM (inactive). Regarding `O=C(O)C1CCN(c2ccc(C(F)(F)F)cn2)CC1`, the Kd was > 4 mM (inactive). For the compound `Cc1n[nH]c(C)c1N`, the Kd is > 4 mM (inactive).

As to `NCCCCNCCCN`, the Kd is > 4 mM (inactive).

On to `COc1cc(OC)c(-c2nc3cnccc3n2C)cc1OC`, for which the Kd was > 4 mM (inactive).

Consider `CC1=[N+]([O-])C2(N)CCc3c(no[n+]3[O-])C2(O)C1` (stereo unspecified), for which the Kd was > 4 mM (inactive). For the compound `NCc1ccc(-n2cccn2)cc1`, the Kd is > 4 mM (inactive). As for `COc1ccc(Cl)cc1NC(=O)c1ccco1`, the Kd is > 4 mM (inactive).

What is called Kd is the equilibrium constant for the complex coming apart.
